Data as given in patent US9193722B2, “Tri-cyclic pyrazolopyridine kinase inhibitors” (Vertex Pharmaceuticals Incorporated, priority 2008, dated 2015).

Columns and labels:
Type in all cases: biochemical
PKC alpha kinase = PKC alpha kinase (Homo sapiens, UniProt P17252); test: PKC alpha kinase inhibition, coupled-enzyme (NADH absorbance) assay, Ki; details: 130 μM ATP, 4.5 nM PKC alpha kinase, 30° C.
Procedure: (§1) An assay buffer solution was prepared which consisted of 100 mM HEPES (pH 7.5), 10 mM MgCl2, 25 mM NaCl, 0.1 mM EDTA, 100 μM CaCl2 and 0.01% Brij. […] To 16 μL of this enzyme buffer, in a 384 well plate, was added 1 μL of VRT stock solution in DMSO. The mixture was allowed to equilibrate for 10 mins at 30° C. The enzyme reaction was initiated by the addition of 16 μL stock ATP solution prepared in assay buffer to a final assay concentration of 130 μM. Initial rate data was determined from the rate of change of absorbance at 340 nm (corresponding to stoichiometric consumption of NADH) using a Molecular Devices Spectramax plate reader (Sunnyvale, Calif.) over 15 mins at 30° C. […] Ki values were calculated from initial rate data by non-linear regression using the Prism software package (Prism 4.0a, Graphpad Software, San Diego, Calif.).

PKC delta kinase = PKC delta kinase (Homo sapiens, UniProt Q05655); test: PKC delta kinase inhibition, coupled-enzyme (NADH absorbance) assay, Ki; details: 150 μM ATP, 46 nM PKC delta kinase, 30° C.; read-out: Ki PKC delta
Procedure: as §1, with “EDTA” for “EDTA, 100 μM CaCl2”, “150” for “130”

PKC theta kinase = PKC theta kinase (Homo sapiens, UniProt Q04759); test: PKC theta kinase inhibition, coupled-enzyme (NADH absorbance) assay, Ki; details: 240 μM ATP, 18 nM PKC theta kinase, 30° C.
Procedure: An assay buffer solution was prepared which consisted of 100 mM HEPES (pH 7.5), 10 mM MgCl2, 25 mM NaCl, 0.1 mM EDTA and 0.01% Brij. […] To 60 μL of this enzyme buffer, in a 384 well plate, was added 2 μL of VRT stock solution in DMSO. The mixture was allowed to equilibrate for 10 mins at 30° C. […] Ki values were calculated from initial rate data by non-linear regression using the Prism software package (Prism 4.0a, Graphpad Software, San Diego, Calif.).

Sequence of PKC delta kinase (Q05655 whole entry): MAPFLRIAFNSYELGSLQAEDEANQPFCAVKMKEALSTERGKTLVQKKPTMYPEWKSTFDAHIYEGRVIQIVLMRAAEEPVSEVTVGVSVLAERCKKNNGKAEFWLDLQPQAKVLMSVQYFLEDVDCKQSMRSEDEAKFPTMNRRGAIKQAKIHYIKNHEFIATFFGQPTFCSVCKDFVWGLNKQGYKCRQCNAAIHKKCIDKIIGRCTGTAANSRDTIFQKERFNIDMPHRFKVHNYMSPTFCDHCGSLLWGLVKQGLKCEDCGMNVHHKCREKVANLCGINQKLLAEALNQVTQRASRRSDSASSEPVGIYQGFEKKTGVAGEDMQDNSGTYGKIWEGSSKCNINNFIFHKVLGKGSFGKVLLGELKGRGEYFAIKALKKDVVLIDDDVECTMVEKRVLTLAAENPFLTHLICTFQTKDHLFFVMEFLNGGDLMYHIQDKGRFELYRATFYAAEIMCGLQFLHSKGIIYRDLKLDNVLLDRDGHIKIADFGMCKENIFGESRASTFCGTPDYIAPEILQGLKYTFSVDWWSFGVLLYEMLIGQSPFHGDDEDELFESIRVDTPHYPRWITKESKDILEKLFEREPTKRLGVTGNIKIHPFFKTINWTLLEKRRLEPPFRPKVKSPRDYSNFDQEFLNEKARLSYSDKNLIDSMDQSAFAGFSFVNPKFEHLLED
Sequence of PKC theta kinase (Q04759 whole entry): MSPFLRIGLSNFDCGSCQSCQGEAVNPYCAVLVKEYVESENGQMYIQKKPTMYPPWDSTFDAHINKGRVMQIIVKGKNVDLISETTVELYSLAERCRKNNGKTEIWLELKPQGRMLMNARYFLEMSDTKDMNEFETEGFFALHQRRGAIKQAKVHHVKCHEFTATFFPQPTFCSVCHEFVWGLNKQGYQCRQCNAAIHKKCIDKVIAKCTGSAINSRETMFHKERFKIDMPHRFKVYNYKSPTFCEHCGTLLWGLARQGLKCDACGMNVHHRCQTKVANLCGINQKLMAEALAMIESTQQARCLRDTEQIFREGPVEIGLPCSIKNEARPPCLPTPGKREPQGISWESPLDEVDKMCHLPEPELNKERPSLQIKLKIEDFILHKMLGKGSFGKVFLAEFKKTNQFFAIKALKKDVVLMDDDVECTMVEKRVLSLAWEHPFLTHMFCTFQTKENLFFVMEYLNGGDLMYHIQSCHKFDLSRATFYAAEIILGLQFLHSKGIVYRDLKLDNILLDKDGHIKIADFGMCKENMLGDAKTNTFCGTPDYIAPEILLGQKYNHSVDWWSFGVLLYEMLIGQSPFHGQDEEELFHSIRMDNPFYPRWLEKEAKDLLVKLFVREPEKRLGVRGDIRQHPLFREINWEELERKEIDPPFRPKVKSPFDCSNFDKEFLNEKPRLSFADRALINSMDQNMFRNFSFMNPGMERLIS

Row | Structure (SMILES) | Ki (PKC alpha kinase) | Ki (PKC delta kinase) | Ki (PKC theta kinase)
1 | CCC1CN(c2ccc(F)c(-c3n[nH]c4ncccc34)n2)CCC1C#N (stereo not drawn) [Compound 407] | > 1.25 µM | < 2.8 µM | < 0.05 µM
2 | CC(C)C[C@H]1CN(c2ccc(C(F)(F)F)c(-c3n[nH]c4ncccc34)n2)CC[C@@H]1N [Compound 85] | > 1.25 µM | > 2 µM | < 0.5 µM
3 | NC1CCN(c2cc(C(F)(F)F)cc(-c3n[nH]c4ncccc34)n2)CC1 [Compound 108] | > 1.25 µM | < 2.8 µM | < 0.5 µM
4 | NC1CCCN(c2ccc(C(F)(F)F)c(-c3n[nH]c4ncccc34)n2)C1 (stereo not drawn) [Compound 122] | > 1.25 µM | > 1.25 µM | > 0.7 µM
5 | CC(C)(F)C(C)(O)C1CN(c2ccc(F)c(-c3n[nH]c4ncccc34)n2)CCN1 (stereo not drawn) [Compound 254] | > 1.25 µM | < 0.05 µM | < 0.001 µM
6 | NC[C@H]1CCN(c2ccc(F)c(-c3n[nH]c4ncccc34)n2)C1 [Compound 362] | > 1.25 µM | > 1.25 µM | < 0.5 µM
7 | CC(C)(N)C1CCN(c2ccc(C(F)(F)F)c(-c3n[nH]c4ncccc34)n2)C1 (stereo not drawn) [Compound 361] | > 1.25 µM | > 1.25 µM | > 0.7 µM
8 | CC[C@H]1CN(c2ccc(C(F)(F)F)c(-c3n[nH]c4ncccc34)n2)CCN1 [Compound 75] | > 1.25 µM | < 2.8 µM | < 0.5 µM
9 | CC1(C)CC1(O)C1CN(c2ccc(F)c(-c3n[nH]c4ncccc34)n2)CCN1 (stereo not drawn) [Compound 288] | > 1.25 µM | < 0.5 µM | < 0.001 µM
10 | CC(C)CC1(C(F)(F)F)CN(c2ccc(C(F)(F)F)c(-c3n[nH]c4ncccc34)n2)CCC1N (stereo not drawn) [Compound 405] | > 1.25 µM | < 0.5 µM | < 0.5 µM
11 | CC1(C)CN(c2cccc(-c3n[nH]c4ncccc34)n2)CCN1 [Compound 79] | > 1.25 µM | < 0.5 µM | < 0.05 µM
12 | NC1(C2CCCN(c3ccc(F)c(-c4n[nH]c5ncccc45)n3)C2)CCCC1 (stereo not drawn) [Compound 344] | > 1.25 µM | < 0.5 µM | < 0.05 µM
13 | CC(C)CC1(CN)CN(c2ccc(C(F)(F)F)c(-c3n[nH]c4ncccc34)n2)C1 [Compound 413] | > 1.25 µM | > 1.25 µM | > 0.7 µM
14 | Fc1ccc(C2CN(c3ccc(C(F)(F)F)c(-c4n[nH]c5ncccc45)n3)CCN2)cc1 (stereo not drawn) [Compound 171] | > 1.25 µM | > 1.25 µM | < 0.5 µM
15 | CCC(C)(O)C1CN(c2ccc(F)c(-c3n[nH]c4ncccc34)n2)CCN1 (stereo not drawn) [Compound 161] | > 1.25 µM | < 0.5 µM | < 0.05 µM
16 | CCC1(CN)CN(c2ccc(C(F)(F)F)c(-c3n[nH]c4ncccc34)n2)CCO1 (stereo not drawn) [Compound 403] | > 1.25 µM | < 0.5 µM | < 0.05 µM
17 | CS(=O)(=O)NCC1CCCN(c2ccc(C(F)(F)F)c(-c3n[nH]c4ncccc34)n2)C1 (stereo not drawn) [Compound 372] | > 1.25 µM | > 1.25 µM | > 0.7 µM
18 | NCC1CCCN(c2ccc(F)c(-c3n[nH]c4ncccc34)n2)C1 (stereo not drawn) [Compound 327] | > 1.25 µM | > 1.25 µM | < 0.5 µM
19 | Cc1cc(-c2n[nH]c3ncccc23)nc(N2CCN[C@@H](CC(C)C)C2)c1 [Compound 56] | > 1.25 µM | < 2.8 µM | < 0.5 µM
20 | CCOC[C@H]1CN(c2cccc(-c3n[nH]c4ncccc34)n2)CCN1 [Compound 147] | > 1.25 µM | > 1.25 µM | < 0.5 µM
21 | CC(C)CC1(N)CCCN(c2ccc(F)c(-c3n[nH]c4ncccc34)n2)C1 (stereo not drawn) [Compound 284] | > 1.25 µM | > 1.25 µM | < 0.5 µM
22 | Fc1ccc(N2CCNC(CC(F)(F)F)C2)nc1-c1n[nH]c2ncccc12 (stereo not drawn) [Compound 206] | > 1.25 µM | < 2.8 µM | < 0.05 µM
23 | CC(C)CC1CN(c2ccc(C(F)(F)F)c(-c3n[nH]c4ncccc34)n2)CCC1CN (stereo not drawn) [Compound 350] | > 1.25 µM | > 1.25 µM | < 0.05 µM
24 | CC(C)(C)[C@H]1CN(c2ccc(Cl)c(-c3n[nH]c4ncccc34)n2)CCN1 [Compound 78] | > 1.25 µM | < 2.8 µM | < 0.5 µM
25 | N#CCCC1CN(c2ccc(F)c(-c3n[nH]c4ncccc34)n2)CCC1O (stereo not drawn) [Compound 458] | > 1.25 µM | > 1.25 µM | < 0.5 µM
26 | NC1CCN(c2ccc(C(F)(F)F)c(-c3n[nH]c4ncccc34)n2)C1 (stereo not drawn) [Compound 125] | > 1.25 µM | > 1.25 µM | < 2.8 µM
27 | NC(=O)C1(N2CCCCC2)CCN(c2ccc(C(F)(F)F)c(-c3n[nH]c4ncccc34)n2)CC1 [Compound 259] | > 1.25 µM | > 1.25 µM | > 0.7 µM
28 | CC(C)(O)CC1CN(c2ccc(C(F)(F)F)c(-c3n[nH]c4ncccc34)n2)CCN1 (stereo not drawn) [Compound 72] | > 1.25 µM | > 2 µM | < 0.5 µM

More lines, now with the values ahead:

Row | Ki (PKC alpha kinase) | Ki (PKC delta kinase) | Ki (PKC theta kinase) | Structure (SMILES)
29 | < 2.8 µM | < 0.5 µM | < 0.05 µM | CCC(C)(O)C1CN(c2cccc(-c3n[nH]c4ncccc34)n2)CCN1 (stereo not drawn) [Compound 160]
30 | > 1.25 µM | > 1.25 µM | > 0.7 µM | CC(C)C[C@H]1CN(c2ccc(C(F)(F)F)c(-c3n[nH]c4ncccc34)n2)CC(F)(F)CN1 [Compound 222]
31 | > 1.25 µM | < 0.5 µM | < 0.5 µM | COC(=O)C1(CC(C)C)CN(c2ccc(C(F)(F)F)c(-c3n[nH]c4ncccc34)n2)CCC1N (stereo not drawn) [Compound 402]
32 | < 2.8 µM | > 2 µM | > 0.7 µM | c1cc(-c2n[nH]c3ncccc23)nc(N2CCOCC2)c1 [Compound 27]
33 | < 2.8 µM | < 0.5 µM | < 0.05 µM | C=C(C)CC1CN(c2ccc(C(F)(F)F)c(-c3n[nH]c4ncccc34)n2)CCN1 (stereo not drawn) [Compound 103]
34 | < 2.8 µM | < 0.05 µM | < 0.05 µM | CC(C)C[C@H]1CN(c2cccc(-c3n[nH]c4ncccc34)n2)C[C@@H](C)N1 [Compound 11]
35 | > 1.25 µM | > 1.25 µM | > 0.7 µM | CC(=O)N1CCN(c2ccc(F)c(-c3n[nH]c4ncccc34)n2)CC1C(C)(O)C(C)C (stereo not drawn) [Compound 414]
36 | < 0.5 µM | < 0.5 µM | < 0.05 µM | CC(C)C[C@H]1CN(c2ccc(Cl)c(-c3n[nH]c4ncccc34)n2)CC[C@H]1N [Compound 149]
37 | < 2.8 µM | > 2 µM | < 0.5 µM | CC(C)C[C@H]1CN(c2ccc(C(F)(F)F)c(-c3n[nH]c4ncc(Br)cc34)n2)CCN1 [Compound 29]
38 | < 0.5 µM | < 0.05 µM | < 0.05 µM | CC(C)CC1(CO)CN(c2ccc(C(F)(F)F)c(-c3n[nH]c4ncccc34)n2)CCC1N (stereo not drawn) [Compound 410]
39 | < 2.8 µM | < 0.5 µM | < 0.05 µM | CC(C)C[C@H]1CN(c2ccc(C(F)(F)F)c(-c3n[nH]c4ncccc34)n2)CC[C@H]1N [Compound 84]
40 | < 2.8 µM | < 0.05 µM | < 0.05 µM | CC(C)(C)C[C@H]1CN(c2cccc(-c3n[nH]c4ncccc34)n2)CCN1 [Compound 139]
41 | < 2.8 µM | < 0.5 µM | < 0.05 µM | CC(C)CC1CN(c2ccc(F)c(-c3n[nH]c4ncccc34)n2)CCC1CN (stereo not drawn) [Compound 386]
42 | < 2.8 µM | < 0.01 µM | < 0.001 µM | CC(F)(F)C(C)(O)C1CN(c2ccc(F)c(-c3n[nH]c4ncccc34)n2)CCN1 (stereo not drawn) [Compound 287]
43 | < 2.8 µM | < 2.8 µM | < 0.05 µM | CC(C)C[C@H]1CN(c2ccc(C(F)(F)F)c(-c3n[nH]c4ncc(F)cc34)n2)CCN1 [Compound 44]
44 | < 2.8 µM | < 0.5 µM | < 0.05 µM | CCC(N)C1CCCN(c2ccc(F)c(-c3n[nH]c4ncccc34)n2)C1 (stereo not drawn) [Compound 291]
45 | < 2.8 µM | < 0.5 µM | < 0.05 µM | CC[C@@H]1CN(c2cccc(-c3n[nH]c4ncccc34)n2)C[C@H](CC(C)C)N1 [Compound 13]
46 | < 2.8 µM | < 0.5 µM | < 0.5 µM | CC(C)CC1(CN)CN(c2ccc(C(F)(F)F)c(-c3n[nH]c4ncccc34)n2)CCO1 (stereo not drawn) [Compound 397]
47 | < 0.5 µM | < 0.5 µM | < 0.05 µM | Cc1ccccc1C1CN(c2cccc(-c3n[nH]c4ncccc34)n2)CCN1 (stereo not drawn) [Compound 32]
